In PubChem BioAssay (NCI):
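Test compounds were applied to cells in 96-well plates for 48 hours at 5 doses. GI50 marks 50% less growth. At the TGI there is no net growth.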

Legend:
Experiment in all cases: inhibition of tumour cell growth, NCI panel, 48 h
ACHN renal = test system: ACHN renal
OVCAR-8 ovarian = test system: OVCAR-8 ovarian
TK-10 renal = test system: TK-10 renal
SR leukemia = test system: SR leukemia
MOLT-4 leukemia = test system: MOLT-4 leukemia
HS 578T breast = test system: HS 578T breast
M14 melanoma = test system: M14 melanoma
HCT-15 colon = test system: HCT-15 colon
NCI-H226 lung = test system: NCI-H226 lung
T-47D breast = test system: T-47D breast
UACC-257 melanoma = test system: UACC-257 melanoma
OVCAR-4 ovarian = test system: OVCAR-4 ovarian
SW-620 colon = test system: SW-620 colon
NCI-H460 lung = test system: NCI-H460 lung
MDA-MB-435 = test system: MDA-MB-435
LOX IMVI melanoma = test system: LOX IMVI melanoma
K-562 leukemia = test system: K-562 leukemia
HT29 colon = test system: HT29 colon
KM12 colon = test system: KM12 colon
CAKI-1 renal = test system: CAKI-1 renal
OVCAR-5 ovarian = test system: OVCAR-5 ovarian
HOP-62 NSCLC = test system: HOP-62 NSCLC
EKVX NSCLC = test system: EKVX NSCLC
CCRF-CEM leukemia = test system: CCRF-CEM leukemia
UACC-62 melanoma = test system: UACC-62 melanoma
IGROV1 ovarian = test system: IGROV1 ovarian
SNB-75 CNS = test system: SNB-75 CNS
A549 NSCLC = test system: A549 NSCLC
NCI/ADR-RES ovarian = test system: NCI/ADR-RES ovarian
SF-295 CNS = test system: SF-295 CNS
SK-MEL-5 melanoma = test system: SK-MEL-5 melanoma
MALME-3M melanoma = test system: MALME-3M melanoma
RXF 393 renal = test system: RXF 393 renal
BT-549 breast = test system: BT-549 breast
RPMI-8226 leukemia = test system: RPMI-8226 leukemia
U251 CNS = test system: U251 CNS
COLO 205 colon = test system: COLO 205 colon
HL-60(TB) leukemia = test system: HL-60(TB) leukemia
MDA-MB-231 breast = test system: MDA-MB-231 breast
NCI-H23 lung = test system: NCI-H23 lung
A498 renal = test system: A498 renal
MCF7 breast = test system: MCF7 breast
PC-3 prostate = test system: PC-3 prostate
SK-MEL-2 melanoma = test system: SK-MEL-2 melanoma
UO-31 renal = test system: UO-31 renal
SK-MEL-28 melanoma = test system: SK-MEL-28 melanoma
NCI-H522 lung = test system: NCI-H522 lung
OVCAR-3 ovarian = test system: OVCAR-3 ovarian
SF-268 CNS = test system: SF-268 CNS
SF-539 CNS = test system: SF-539 CNS
SN12C renal = test system: SN12C renal
SK-OV-3 ovarian = test system: SK-OV-3 ovarian
HCC-2998 colon = test system: HCC-2998 colon
HCT-116 colon = test system: HCT-116 colon
DU-145 prostate = test system: DU-145 prostate

Question: What does the source list for `CCN(CC)CCCC(Nc1c2ccc(Cl)cc2nc2ccc(OC)cc12)c1ccc(F)cc1` (stereo not given)?
Answer: GI50 (ACHN renal): 1.97 µM; TGI (ACHN renal): 3.64 µM; GI50 (OVCAR-8 ovarian): 3.27 µM; TGI (OVCAR-8 ovarian): 10.4 µM; GI50 (TK-10 renal): 1.81 µM; TGI (TK-10 renal): 3.58 µM; GI50 (SR leukemia): 2.19 µM; TGI (SR leukemia): 5.88 µM; GI50 (MOLT-4 leukemia): 2.72 µM; TGI (MOLT-4 leukemia): 7.06 µM; GI50 (HS 578T breast): 1.69 µM; TGI (HS 578T breast): 4.17 µM; GI50 (M14 melanoma): 1.88 µM; TGI (M14 melanoma): 3.58 µM; GI50 (HCT-15 colon): 1.56 µM; TGI (HCT-15 colon): 3.27 µM; GI50 (NCI-H226 lung): 20.9 µM; TGI (NCI-H226 lung): 47.5 µM; GI50 (T-47D breast): 2.15 µM; TGI (T-47D breast): 5.66 µM; GI50 (UACC-257 melanoma): 2.02 µM; TGI (UACC-257 melanoma): 4.1 µM; GI50 (OVCAR-4 ovarian): 1.71 µM; TGI (OVCAR-4 ovarian): 4.71 µM; GI50 (SW-620 colon): 1.79 µM; TGI (SW-620 colon): 3.65 µM; GI50 (NCI-H460 lung): 1.91 µM; TGI (NCI-H460 lung): 3.84 µM; GI50 (MDA-MB-435): 1.73 µM; TGI (MDA-MB-435): 3.2 µM; GI50 (LOX IMVI melanoma): 1.77 µM; TGI (LOX IMVI melanoma): 3.26 µM; GI50 (K-562 leukemia): 2.18 µM; TGI (K-562 leukemia): 4.26 µM; GI50 (HT29 colon): 2.7 µM; TGI (HT29 colon): 9.87 µM; GI50 (KM12 colon): 2 µM; TGI (KM12 colon): 3.67 µM; GI50 (CAKI-1 renal): 1.73 µM; TGI (CAKI-1 renal): 3.79 µM; GI50 (OVCAR-5 ovarian): 2.04 µM; TGI (OVCAR-5 ovarian): 5.6 µM; GI50 (HOP-62 NSCLC): 2.54 µM; TGI (HOP-62 NSCLC): 6.87 µM; GI50 (EKVX NSCLC): 2.08 µM; TGI (EKVX NSCLC): 8.48 µM; GI50 (CCRF-CEM leukemia): 2.4 µM; TGI (CCRF-CEM leukemia): 6.49 µM; GI50 (UACC-62 melanoma): 1.71 µM; TGI (UACC-62 melanoma): 3.25 µM; GI50 (IGROV1 ovarian): 3.15 µM; TGI (IGROV1 ovarian): 9.06 µM; GI50 (SNB-75 CNS): 1.21 µM; TGI (SNB-75 CNS): 2.66 µM; GI50 (A549 NSCLC): 2.44 µM; TGI (A549 NSCLC): 5.99 µM; GI50 (NCI/ADR-RES ovarian): 2.38 µM; TGI (NCI/ADR-RES ovarian): 5.75 µM; GI50 (SF-295 CNS): 1.6 µM; TGI (SF-295 CNS): 3.16 µM; GI50 (SK-MEL-5 melanoma): 1.7 µM; TGI (SK-MEL-5 melanoma): 3.15 µM; GI50 (MALME-3M melanoma): 1.99 µM; TGI (MALME-3M melanoma): 3.68 µM; GI50 (RXF 393 renal): 1.51 µM; TGI (RXF 393 renal): 3.13 µM; GI50 (BT-549 breast): 12.8 µM; TGI (BT-549 breast): 26.4 µM; GI50 (RPMI-8226 leukemia): 2.18 µM; TGI (RPMI-8226 leukemia): 5.36 µM; GI50 (U251 CNS): 1.92 µM; TGI (U251 CNS): 3.88 µM; GI50 (COLO 205 colon): 2.05 µM; TGI (COLO 205 colon): 4.53 µM; GI50 (HL-60(TB) leukemia): 1.91 µM; TGI (HL-60(TB) leukemia): 4.02 µM; GI50 (MDA-MB-231 breast): 1.47 µM; TGI (MDA-MB-231 breast): 3.08 µM; GI50 (NCI-H23 lung): 2.56 µM; TGI (NCI-H23 lung): 7.9 µM; GI50 (A498 renal): 7.37 µM; TGI (A498 renal): 21.4 µM; GI50 (MCF7 breast): 1.64 µM; TGI (MCF7 breast): 3.62 µM; GI50 (PC-3 prostate): 2.7 µM; TGI (PC-3 prostate): 9.22 µM; GI50 (SK-MEL-2 melanoma): 2.1 µM; TGI (SK-MEL-2 melanoma): 4.35 µM; GI50 (UO-31 renal): 1.56 µM; TGI (UO-31 renal): 3.15 µM; GI50 (SK-MEL-28 melanoma): 1.71 µM; TGI (SK-MEL-28 melanoma): 3.2 µM; GI50 (NCI-H522 lung): 2.01 µM; TGI (NCI-H522 lung): 4.58 µM; GI50 (OVCAR-3 ovarian): 2.16 µM; TGI (OVCAR-3 ovarian): 4.44 µM; GI50 (SF-268 CNS): 2.28 µM; TGI (SF-268 CNS): 5.33 µM; GI50 (SF-539 CNS): 1.73 µM; TGI (SF-539 CNS): 3.25 µM; GI50 (SN12C renal): 2.03 µM; TGI (SN12C renal): 4.68 µM; GI50 (SK-OV-3 ovarian): 4.33 µM; TGI (SK-OV-3 ovarian): 15.9 µM; GI50 (HCC-2998 colon): 1.74 µM; TGI (HCC-2998 colon): 3.25 µM; GI50 (HCT-116 colon): 1.84 µM; TGI (HCT-116 colon): 3.48 µM; GI50 (DU-145 prostate): 3.23 µM; TGI (DU-145 prostate): 10.4 µM
